# Source: ChEMBL document CHEMBL1121939, “1-beta-D-arabinofuranosyl-1H-imidazo[4,5-c]pyridine (ara-3-deazaadenine)” (J Med Chem, 1982)
# Assays:
# L929 = assay: Inhibitory activity against herpes simplex virus type 1 grown in L929 cells; assay type: functional, Mus musculus
# Adenosylhomocysteinase = Adenosylhomocysteinase (Homo sapiens, UniProt P23526); assay: Inhibitory activity against S-adenosyl-homocysteine hydrolase; set-up: species or system herpes simplex virus; conditions: read-out: I50
# Adenosylhomocysteinase, sequence (P23526 whole entry): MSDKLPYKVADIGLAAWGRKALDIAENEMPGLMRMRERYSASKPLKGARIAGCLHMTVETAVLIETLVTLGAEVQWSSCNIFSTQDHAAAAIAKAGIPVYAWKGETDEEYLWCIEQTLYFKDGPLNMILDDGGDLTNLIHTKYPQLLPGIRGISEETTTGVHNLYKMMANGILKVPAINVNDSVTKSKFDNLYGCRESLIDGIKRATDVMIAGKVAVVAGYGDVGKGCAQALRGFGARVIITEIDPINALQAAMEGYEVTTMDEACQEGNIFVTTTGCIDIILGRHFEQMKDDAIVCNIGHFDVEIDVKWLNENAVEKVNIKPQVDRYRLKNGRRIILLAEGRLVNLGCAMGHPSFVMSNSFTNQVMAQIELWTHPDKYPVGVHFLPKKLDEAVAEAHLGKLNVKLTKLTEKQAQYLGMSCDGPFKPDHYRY
IC50 (Adenosylhomocysteinase),SMILES,MED50 (L929),Virus rating (L929)
100 µM,Nc1nccc2c1ncn2[C@@H]1O[C@H](CO)[C@@H](O)[C@@H]1O,189 µg/mL,0.8
–,Nc1ncnc2c1ncn2[C@@H]1O[C@H](CO)[C@@H](O)[C@@H]1O [VIDARABINE],0.8 µg/mL,3.7
4 µM,Nc1nccc2c1ncn2[C@@H]1O[C@H](CO)[C@@H](O)[C@H]1O,–,–
